Measured values published in the C3SDB collision cross section collection.
Where “and” joins values, the source holds several entries; their conditions need not be identical. Equal values may be shown once.

Key:
[1] = instrument: DT, single field, calibrated with ESI Low Concentration Tuning Mix (Agilent)
[2] = [M+H]+; instrument: TW; calibrated with polyalanine and drug standards

Row | Structure (SMILES) | collision cross section (N2) ([1]; [M+H]+) | collision cross section (N2) ([1]; [M+Na]+) | collision cross section (N2) ([1]; [M-H]-) | collision cross section (N2) [2] [Å²] | collision cross section (N2) ([1]; [M+Na-2H]-) [Å²] | collision cross section (N2) ([1]; [M+K]+) [Å²]
1 | CN1CC(=O)N=C1N [CREATININE] | 123.2 Å² | 132.8 Å² | 118.5 Å² | 120.2 | – | –
2 | N[C@H]1C(O)O[C@H](CO)[C@@H](O)[C@@H]1O (stereo partly drawn) [GLUCOSAMINE] | 138.1 Å² and 141.4 Å² | 143.5 Å² and 146.5 Å² | – | 145.2 | – | –
3 | OC[C@H]1O[C@H](OC[C@H]2O[C@H](OC[C@H]3O[C@H](O[C@]4(CO)O[C@H](CO)[C@@H](O)[C@@H]4O)[C@H](O)[C@@H](O)[C@@H]3O)[C@H](O)[C@@H](O)[C@H]2O)[C@H](O)[C@@H](O)[C@H]1O [STACHYOSE] | – | 235.1 Å² | 224.1 Å² | – | – | –
4 | NCCS(=O)(=O)O [TAURINE] | 128.2 Å² and 134.2 Å² | – | 118.4 Å² | – | – | –
5 | CSc1ncnc2nc[nH]c12 [THIOPURINE S-METHYLETHER] | 129.8 Å² | 145.1 Å² | 127.7 Å² | – | – | –
6 | Cc1cn([C@H]2C[C@H](O)[C@@H](CO)O2)c(=O)[nH]c1=O [THYMIDINE] | – | 161.6 Å² | 154.1 Å² | – | – | –
7 | Cc1c[nH]c(=O)[nH]c1=O [THYMINE] | 122.1 Å² | – | 119 Å² | – | – | –
8 | NC(=O)[C@@H]1CCCN1C(=O)[C@H](Cc1cnc[nH]1)NC(=O)[C@@H]1CCC(=O)N1 [THYROTROPIN RELEASING HORMONE] | 179.2 Å² | 182.4 Å² | 184.5 Å² | – | 183.2 | –
9 | OC[C@H]1O[C@H](O[C@H]2O[C@H](CO)[C@@H](O)[C@H](O)[C@H]2O)[C@H](O)[C@@H](O)[C@@H]1O [TREHALOSE] | – | 175.7 Å² | 169.9 Å² | – | – | 179.7
10 | CCCCCCCCCCCCCCCCCCCCCCC(=O)[O-] [TRICOSANOATE] | – | 204.8 Å² | 196.9 Å² | – | – | –
11 | N[C@@H](Cc1c[nH]c2ccccc12)C(=O)O [TRYPTOPHAN] | 150.1 Å² and 150.3 Å² | 147.6 Å² and 147.7 Å² | 142.3 Å² and 142.5 Å² and 151.5 Å² | – | – | –
12 | NC(=O)NCCC(=O)O [UREIDOPROPIONATE] | – | 132.4 Å² | – | – | – | –
13 | CC(=O)NC1C(OP(=O)(O)OP(=O)(O)OCC2OC(n3ccc(=O)[nH]c3=O)C(O)C2O)OC(CO)C(O)C1O (stereo not drawn) [URIDINE DIPHOSPHATE-N-ACETYLGALACTOSAMINE] | 216.2 Å² | 218.1 Å² | 223.9 Å² | – | 228.2 | –
14 | CC(=O)N[C@H]1[C@H](OP(=O)(O)OP(=O)(O)OC[C@H]2O[C@@H](n3ccc(=O)[nH]c3=O)[C@H](O)[C@@H]2O)O[C@H](CO)[C@@H](O)[C@@H]1O [URIDINE DIPHOSPHATE-N-ACETYLGLUCOSAMINE] | 210.5 Å² | 218.1 Å² | 224 Å² | – | 227.9 | –
15 | O=c1ccn([C@@H]2O[C@H](COP(=O)(O)O)[C@@H](O)[C@H]2O)c(=O)[nH]1 [URIDINE MONOPHOSPHATE] | 165.7 Å² | 172.3 Å² | 161.2 Å² | – | 163.6 | –
16 | O=C(O)/C=C/c1cnc[nH]1 [UROCANATE] | 134.6 Å² | – | 120.9 Å² | – | – | –
17 | CC(C)[C@H](N)C(=O)O [VALINE] | 120.9 Å² | 133.4 Å² | 124.3 Å² | – | – | –
18 | O=c1[nH]c(=O)c2ncn([C@@H]3O[C@H](CO)[C@@H](O)[C@H]3O)c2[nH]1 [XANTHOSINE] | 162 Å² | 173.3 Å² | 158.3 Å² | – | 161.9 | 173
